Source: the NIST ThermoML archive (doi:10.1021/acs.jced.6b00273)

Assay: mn = molality of the nth substance listed, in mol/kg
Conditions: 101.33 kPa, Liquid; for viscosity: Capillary tube (Ostwald / Ubbelohde) method; for mass density: Vibrating tube method

Cn1cnc2c1c(=O)[nH]c(=O)n2C [1H-purine-2,6-dione, 3,7-dihydro-3,7-dimethyl-] + O
Conditions	mass density, 288.15 K [kg/m3]	mass density, 298.15 K [kg/m3]	mass density, 308.15 K [kg/m3]	mass density, 318.15 K [kg/m3]	viscosity, 288.15 K [mPa·s]	viscosity, 298.15 K [mPa·s]	viscosity, 308.15 K [mPa·s]	viscosity, 318.15 K [mPa·s]
m1 = 0.00051	999.157	997.073	994.088	990.268	1.138	0.891	0.72	0.597
m1 = 0.0007	999.167	997.083	994.097	990.277	1.139	0.891	0.72	0.597
m1 = 0.0009	999.177	997.093	994.107	990.287	1.139	0.891	0.72	0.597
m1 = 0.00098	999.182	997.097	994.111	990.291	1.139	0.891	0.72	0.597
m1 = 0.00123	999.195	997.11	994.123	990.303	1.139	0.891	0.72	0.597
m1 = 0.00147	–	–	–	–	1.139	0.891	0.72	0.597
m1 = 0.00148	999.209	997.123	994.135	990.314	–	–	–	–
m1 = 0.00182	–	–	–	–	1.139	0.891	0.72	0.597
m1 = 0.00183	999.228	997.141	994.152	990.331	–	–	–	–
m1 = 0.00212	–	–	–	–	1.139	0.891	0.72	0.597
m1 = 0.00213	999.244	997.156	994.167	990.346	–	–	–	–

Cn1c(=O)c2[nH]cnc2n(C)c1=O [3,7-dihydro-1,3-dimethyl-1H-purine-2,6-dione] + O
Conditions	mass density, 288.15 K [kg/m3]	mass density, 298.15 K [kg/m3]	mass density, 308.15 K [kg/m3]	mass density, 318.15 K [kg/m3]	viscosity, 288.15 K [mPa·s]	viscosity, 298.15 K [mPa·s]	viscosity, 308.15 K [mPa·s]	viscosity, 318.15 K [mPa·s]
m1 = 0.00208	999.241	997.153	994.165	990.343	–	–	–	–
m1 = 0.00213	–	–	–	–	1.139	0.891	0.719	0.597
m1 = 0.00284	–	–	–	–	1.139	0.892	0.72	0.597
m1 = 0.00285	999.283	997.192	994.204	990.379	–	–	–	–
m1 = 0.00378	999.333	997.239	994.25	990.423	–	–	–	–
m1 = 0.00394	–	–	–	–	1.14	0.892	0.72	0.598
m1 = 0.00479	999.388	997.291	994.3	990.472	–	–	–	–
m1 = 0.00519	–	–	–	–	1.14	0.892	0.721	0.598
m1 = 0.00578	999.443	997.341	994.35	990.519	–	–	–	–
m1 = 0.00617	–	–	–	–	1.141	0.893	0.722	0.599
m1 = 0.00689	–	–	–	–	1.141	0.893	0.722	0.599
m1 = 0.00699	999.509	997.404	994.41	990.578	–	–	–	–
m1 = 0.00776	999.551	997.443	994.448	990.614	–	–	–	–
m1 = 0.00819	–	–	–	–	1.142	0.894	0.723	0.599
m1 = 0.00921	–	–	–	–	1.142	0.895	0.723	0.6
m1 = 0.00934	999.638	997.526	994.528	990.691	–	–	–	–
m1 = 0.00986	999.667	997.554	994.554	990.716	–	–	–	–

Cn1c(=O)c2c(ncn2C)n(C)c1=O [caffeine] + O
Conditions	mass density, 288.15 K [kg/m3]	mass density, 298.15 K [kg/m3]	mass density, 308.15 K [kg/m3]	mass density, 318.15 K [kg/m3]	viscosity, 288.15 K [mPa·s]	viscosity, 298.15 K [mPa·s]	viscosity, 308.15 K [mPa·s]	viscosity, 318.15 K [mPa·s]
m1 = 0.00508	–	–	–	–	1.14	0.895	0.723	0.599
m1 = 0.0051	999.404	997.304	994.303	990.464	–	–	–	–
m1 = 0.00693	–	–	–	–	1.142	0.896	0.724	0.6
m1 = 0.00695	999.505	997.399	994.39	990.545	–	–	–	–
m1 = 0.009	–	–	–	–	1.144	0.896	0.724	0.601
m1 = 0.00902	999.619	997.504	994.488	990.637	–	–	–	–
m1 = 0.01986	–	–	–	–	1.147	0.9	0.728	0.606
m1 = 0.01993	1000.22	998.06	995.013	991.121	–	–	–	–
m1 = 0.02978	–	–	–	–	1.152	0.905	0.732	0.609
m1 = 0.02992	1000.77	998.576	995.497	991.571	–	–	–	–
m1 = 0.03531	1001.07	998.853	995.759	991.812	–	–	–	–
m1 = 0.03533	–	–	–	–	1.154	0.907	0.735	0.611
m1 = 0.03983	–	–	–	–	1.156	0.91	0.737	0.613
m1 = 0.04008	1001.34	999.101	996.001	992.025	–	–	–	–
m1 = 0.04953	–	–	–	–	1.162	0.914	0.741	0.617
m1 = 0.04992	1001.89	999.619	996.484	992.483	–	–	–	–

[Cl-].[Na+] [sodium chloride] + O
Conditions	mass density, m1 = 0.1 [kg/m3]	mass density, m1 = 0.25 [kg/m3]	mass density, m1 = 0.5 [kg/m3]	mass density, m1 = 0.75 [kg/m3]	mass density, m1 = 1 [kg/m3]	viscosity, m1 = 0.1 [mPa·s]	viscosity, m1 = 0.25 [mPa·s]	viscosity, m1 = 0.5 [mPa·s]	viscosity, m1 = 0.75 [mPa·s]	viscosity, m1 = 1 [mPa·s]
288.15 K	1003.33	1009.78	–	1029.45	1039.16	1.15	1.16	1.178	1.214	1.254
298.15 K	1001.12	1007.29	–	1026.12	1036.18	0.901	0.91	0.932	0.959	0.991
308.15 K	998.046	1003.48	–	1023.12	1032.47	0.728	0.74	0.756	0.78	0.812
318.15 K	994.175	999.875	1009.78	1018.94	1028.31	0.605	0.61	0.63	0.65	0.676
